Reference: publication PMC12391994, “Synthesis of a fac-Tricarbonylrhenium(I) Complex with Pyrithione, Its Physicochemical Characterization, and Assessment of Biological Effects” (ACS Omega, 2025)
Values joined by “and” are separate entries in the source; they are usually repeats but may differ in a detail not shown here. Equal values may be shown once. Marks after values point to notes of the source that are not given here.

Assays:
[1] = biological target: T1, cathepsin B (exopeptidase activity) (Homo sapiens, UniProt P07858); assay: Determination of inhibition constants, cathepsin B exopeptidase activity; format: biochemical; details: substrate Abz-GIVRAK(Dnp)-OH, mixed inhibition
T1 construct: made in house; host or cells: E. coli
Method: (§1) Human recombinant cathepsin B was expressed in E. coli, recombinant cathepsin V was expressed in Pichia pastoris, and human recombinant cathepsin L was expressed in E. coli, as reported. − For the determination of cathepsin B endopeptidase and exopeptidase activities, 100 mM phosphate buffer (pH 6.0) and 60 mM acetate buffer (pH 5.0) were used, respectively, and for the determination of cathepsin V and L activities, 100 mM acetate buffer (pH 5.5) was used. All buffers contained 0.1% PEG 8000 (Sigma-Aldrich, St. Louis, MO), 5 mM cysteine, and 1.5 mM EDTA. Prior to the assay, the enzymes were activated in the assay buffer for 5 min at 37 °C.
(§2) Inhibition constants were calculated from the reaction velocities measured at three substrate concentrations (the substrate Z-Arg-Arg-AMC at concentrations of 60, 180, and 360 μM and the substrate Abz-Gly-Ile-Val-Arg-Ala-Lys(Dnp)-OH at concentrations of 1, 3, and 6 μM to assess cathepsin B endopeptidase and exopeptidase activity, respectively) in the presence of seven concentrations of the inhibitor (0, 20, 40, 60, 80, 100, and 200 μM). […] Formation of fluorescent degradation products was monitored as described above. […]

Behavior in blood serum = format: physicochemical, human; details: concentration of 40 μM
Colo320 cells = assay: MTT cytotoxicity assay, Colo320; format: cell-based, human; details: 72 h incubation
Method: (§3) Its cytotoxicity was determined in the human HeLa cervical cancer cell line, the drug-sensitive Colo205 and its resistant counterpart, the ABCB1 expressing Colo320 colon adenocarcinoma cancer cell lines, using the colorimetric 3-(4,5-dimethylthiazol-2-yl)-2,5-diphenyltetrazolium bromide (MTT) test. To investigate the selectivity toward cancer cells, the noncancerous fibroblast CCD-19Lu cell line was included.
Drug-sensitive Colo205 (ATCC-CCL-222) and ABCB1 (MDR1)-LRP expressing and doxorubicin-resistant Colo320/MDR-LRP (ATCC-CCL-220.1) human colonic adenocarcinoma cell lines were purchased from LGC Promochem (Teddington, U.K.). The cells were cultured in RPMI 1640 medium supplemented with 10% heat-inactivated fetal bovine serum, 2 mM L-glutamine, 1 mM Na-pyruvate, and 10 mM HEPES.
(§4) The tested compound was dissolved in DMSO to prepare a 5 mM stock solution, which was diluted in complete culture medium, to study the effect of compounds on cell growth of human colonic adenocarcinoma cell lines. Doxorubicin was used as the positive control. The cells were treated with a trypsin-versene (EDTA) solution. […] Cell growth was determined by measuring the optical density (OD) at 540/630 nm with a Multiscan EX ELISA reader (Thermo Labsystems, Cheshire, WA). […]

[2] = biological target: T2, cathepsin B (endopeptidase activity) (Homo sapiens, UniProt P07858); assay: Determination of inhibition constants, cathepsin B endopeptidase activity; format: biochemical; details: substrate Z-RR-AMC
T2 construct: made in house; host or cells: E. coli
Method: as §1, §2

HeLa cells = assay: MTT cytotoxicity assay, HeLa; format: cell-based, human; details: 72 h incubation
Method: as §3
as §4, with “solution. Cells were adjusted to a density of 1 × 10^4 cells in 100 μL of the appropriate culture medium and were added to each well, with the exception of the medium control wells. Except for the semiadherent Colo205 and Colo320 cell lines, the other adherent cell lines were seeded 24 h prior to the assay. Then, stock solutions were diluted in the appropriate culture medium, and 2-fold serial dilutions of compounds were prepared in 100 μL of the medium, horizontally.” for “solution.”

S. aureus ATCC 25923 = assay: Antibacterial MIC assay, S. aureus ATCC 25923; format: cell-based, Staphylococcus aureus; details: 18 h, visual inspection
Method: The antibacterial effect of the complex was tested against the Gram-negative strain Escherichia coli (E. coli) ATCC 25922, the Gram-positive reference strain Staphylococcus aureus (S. aureus) ATCC 25923, and the methicillin-resistant S. aureus MRSA ATCC 43300 strain. MRSA strains are responsible for several difficult-to-treat hospital-acquired infections.
The following bacterial strains were used in our experiments: Gram-positive S. aureus American Type Culture Collection (ATCC) 25923 as the methicillin-susceptible reference bacterial strain; methicillin-resistant S. aureus ATCC 43300 (MRSA) strain; E. coli ATCC 25922 as a Gram-negative bacterial strain.
MIC values of the complexes were determined in 96-well plates based on the Clinical and Laboratory Standard Institute guidelines (CLSI guidelines). The stock solutions of the compound (dissolved in DMSO at 5 mM concentration) were diluted in 100 μL of Mueller Hinton Broth. Then, 10^–4 dilution of an overnight bacterial culture in 100 μL of medium was added to each well, with the exception of the medium control wells.

Structure (SMILES): N#Cc1ccccc1.[C-]#[O+].[C-]#[O+].[C-]#[O+].[O-]n1ccccc1=S.[Re+] [complex 4, fac-[Re(CO)3(pth)(benzonitrile)]]
- Ki′ (dissociation of enzyme–substrate–inhibitor complex), exopeptidase activity [1]: 67.0 ± 8.3 ^d μM
- Ki ([1]; read-out: Ki (dissociation of enzyme–inhibitor complex), exopeptidase activity): 165 ± 76 µM
- behavior in blood serum (Behavior in blood serum): precipitation
- IC50 (Colo320 cells): 10.5 ± 0.85 µM
- mode of inhibition, cathepsin B endopeptidase activity [2]: uncompetitive
- Ki′ (dissociation of enzyme–substrate–inhibitor complex), endopeptidase activity ([2]; uncompetitive inhibition): 17.02 ± 1.59 μM and 17.0 ± 1.6 ^c μM
- IC50 (HeLa cells): 7.96 ± 0.98 µM
- MIC (S. aureus ATCC 25923): 6.25 µM
